Inhibition data for 54 compounds are collected here from doi:10.1101/2022.03.12.484055v1 (biorxiv, 2022).

What is called inhibition is the percentage by which the read-out fell short of the control.

For the first assay, the target named is T1, ASIC1 (hASIC1; ASIC1a as primary isoform in tsA-201 cells) (Homo sapiens, UniProt P78348).
T1 sequence (P78348 1-528): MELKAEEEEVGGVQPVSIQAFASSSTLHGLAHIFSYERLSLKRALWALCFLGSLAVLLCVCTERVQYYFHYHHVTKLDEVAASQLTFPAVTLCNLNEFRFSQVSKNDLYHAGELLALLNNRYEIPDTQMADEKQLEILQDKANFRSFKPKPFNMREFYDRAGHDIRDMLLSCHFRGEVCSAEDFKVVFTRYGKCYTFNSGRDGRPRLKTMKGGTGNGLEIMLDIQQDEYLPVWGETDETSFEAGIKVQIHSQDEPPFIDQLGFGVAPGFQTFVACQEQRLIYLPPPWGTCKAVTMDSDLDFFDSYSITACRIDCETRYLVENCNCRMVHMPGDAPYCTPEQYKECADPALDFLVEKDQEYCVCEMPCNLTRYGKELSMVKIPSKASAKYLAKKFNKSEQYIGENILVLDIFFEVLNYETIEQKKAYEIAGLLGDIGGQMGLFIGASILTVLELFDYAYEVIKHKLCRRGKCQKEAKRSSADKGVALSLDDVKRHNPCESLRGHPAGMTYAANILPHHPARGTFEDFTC
The assay is described as follows: cell-based. The settings on record: tsA201, read-out: % inhibition @ 30 µM.
With `N=C(N)NC(=O)c1nc(Cl)c(N)nc1N` [compound 11, amiloride], the inhibition at 30 µM stood at 88%.

For `N=C(N)NC(=O)c1nc(Cl)c(N2CCCCCC2)nc1N` [compound 13, HMA], the inhibition at 30 µM came out at 79%.

On to `N=C(N)NC(=O)c1nc(-c2ccco2)c(N2CCCCCC2)nc1N` [compound 15, 15], for which the inhibition at 30 µM turned out to be 46%.

As to `N=C(N)NC(=O)c1nc(-c2cc3ccccc3o2)c(N2CCCCCC2)nc1N` [compound 17], the inhibition at 30 µM worked out at 64%.

Regarding `N=C(N)NC(=O)c1nc(-c2cc3ccccc3s2)c(N)nc1N` [compound 18, 18], the inhibition at 30 µM came to 45%.

`N=C(N)NC(=O)c1nc(-c2cc3ccccc3s2)c(N2CCCCCC2)nc1N` [compound 19, 19]: the inhibition at 30 µM came to 67%.

On to `Cc1ccc2oc(-c3nc(C(=O)NC(=N)N)c(N)nc3N)cc2c1` [compound 20, 20], for which the inhibition at 30 µM worked out at 65%.

Regarding `CC(C)(C)c1ccc2oc(-c3nc(C(=O)NC(=N)N)c(N)nc3N3CCCCCC3)cc2c1` [compound 22, 22], the inhibition at 30 µM is 44%.

As for `N=C(N)NC(=O)c1nc(-c2cc3cc(F)ccc3o2)c(N2CCCCCC2)nc1N` [compound 24, 24], the inhibition at 30 µM turned out to be 58%.

With `N=C(N)NC(=O)c1nc(-c2cc3cc(Cl)ccc3o2)c(N)nc1N` [compound 25, 25], the inhibition at 30 µM was 69%.

For the compound `N=C(N)NC(=O)c1nc(-c2cc3cc(Cl)ccc3o2)c(N2CCCCCC2)nc1N` [compound 26, 26], the inhibition at 30 µM came to 35%.

With `N=C(N)NC(=O)c1nc(-c2cc3cc(Br)ccc3o2)c(N)nc1N` [compound 27, 27], the inhibition at 30 µM was 45%.

In the case of `N=C(N)NC(=O)c1nc(-c2cc3cc(Br)ccc3o2)c(N2CCCCCC2)nc1N` [compound 28, 28], the inhibition at 30 µM is 59%.

For `COc1ccc2oc(-c3nc(C(=O)NC(=N)N)c(N)nc3N3CCCCCC3)cc2c1` [compound 30, 30], the inhibition at 30 µM was found to be 35%.

Regarding `N#Cc1ccc2oc(-c3nc(C(=O)NC(=N)N)c(N)nc3N)cc2c1` [compound 31, 31], the inhibition at 30 µM turned out to be 30%.

With `N#Cc1ccc2oc(-c3nc(C(=O)NC(=N)N)c(N)nc3N3CCCCCC3)cc2c1` [compound 32, 32], the inhibition at 30 µM came out at 64%.

Regarding `COc1ccc2cc(-c3nc(C(=O)NC(=N)N)c(N)nc3N)oc2c1` [compound 33, 33], the inhibition at 30 µM was found to be 68%.

As for `N=C(N)NC(=O)c1nc(-c2cc3cc(F)cc(F)c3o2)c(N2CCCCCC2)nc1N` [compound 36, 36], the inhibition at 30 µM is 69%.

Take `N=C(N)NC(=O)c1nc(-c2cc3ncccc3o2)c(N)nc1N` [compound 37, 37]: the inhibition at 30 µM was 17%.

Take `N=C(N)NC(=O)c1nc(-c2cc3ncccc3o2)c(N2CCCCCC2)nc1N` [compound 38, 38]: the inhibition at 30 µM turned out to be 20%.

In the case of `N=C(N)NC(=O)c1nc(-c2cc3cnccc3o2)c(N)nc1N` [compound 39, 39], the inhibition at 30 µM is 36%.

For the compound `N=C(N)NC(=O)c1nc(-c2cc3cnccc3o2)c(N2CCCCCC2)nc1N` [compound 40, 40], the inhibition at 30 µM was found to be 21%.

As to `N=C(N)NC(=O)c1nc(-c2ccc3c(c2)CCO3)c(N)nc1N` [compound 41, 41], the inhibition at 30 µM came to 22%.

Regarding `N=C(N)NC(=O)c1nc(-c2ccc3c(c2)CCO3)c(N2CCCCCC2)nc1N` [compound 42, 42], the inhibition at 30 µM amounted to 49%.

Take `N=C(N)NC(=O)c1nc(-c2ccc3occc3c2)c(N)nc1N` [compound 43, 43]: the inhibition at 30 µM was determined as 59%.

In the case of `N=C(N)NC(=O)c1nc(-c2ccc3occc3c2)c(N2CCCCCC2)nc1N` [compound 44, 44], the inhibition at 30 µM was found to be 23%.

Turning to `N=C(N)NC(=O)c1nc(-c2cncnc2)c(N2CCCCCC2)nc1N` [compound 45, 45], the inhibition at 30 µM came out at 25%.

Turning to `COc1ncc(-c2nc(C(=O)NC(=N)N)c(N)nc2N)cn1` [compound 46], the inhibition at 30 µM turned out to be 34%.

With `COc1ncc(-c2nc(C(=O)NC(=N)N)c(N)nc2N2CCCCCC2)cn1` [compound 47], the inhibition at 30 µM was determined as 33%.

Take `N=C(N)NC(=O)c1nc(-c2ccc(C(F)(F)F)cc2)c(N)nc1N` [compound 48, 48]: the inhibition at 30 µM worked out at 44%.

For the compound `N=C(N)NC(=O)c1nc(-c2ccc(C(F)(F)F)cc2)c(N2CCCCCC2)nc1N` [compound 49, 49], the inhibition at 30 µM is 67%.

Consider `Cn1cc(-c2nc(C(=O)NC(=N)N)c(N)nc2N2CCCCCC2)cn1` [compound 50, 50], for which the inhibition at 30 µM is 53%.

For another assay, the target named is T1, ASIC1 (hASIC1; ASIC1a as primary isoform in tsA-201 cells). The assay can be described thus: cell-based. The following applies: tsA201, read-out: % inhibition @ 30 µM. The source holds these as a separate data set.
For `COC(=O)c1nc(-c2cc3ccccc3o2)c(N2CCCCCC2)nc1N` [compound 67, 67], the inhibition at 30 µM was found to be 9%.

For `Nc1nc(N2CCCCCC2)c(-c2cc3ccccc3o2)nc1C(=O)O` [compound 68, 68], the inhibition at 30 µM stood at 6%.

For the compound `CN(C)C(=O)c1nc(-c2cc3ccccc3o2)c(N2CCCCCC2)nc1N` [compound 69, 69], the inhibition at 30 µM was 10%.

Turning to `Nc1nnc(-c2nc(-c3cc4ccccc4o3)c(N3CCCCCC3)nc2N)[nH]1` [compound 70, 70], the inhibition at 30 µM was determined as 15%.

For the compound `Nc1noc(-c2nc(-c3cc4ccccc4o3)c(N3CCCCCC3)nc2N)n1` [compound 71, 71], the inhibition at 30 µM came out at 8%.

On to `CN(C)CCC(=O)c1nc(-c2cc3ccccc3o2)c(N2CCCCCC2)nc1N` [compound 72, 72], for which the inhibition at 30 µM came to 31%.

Turning to `N=C(N)NC(=O)c1nc(-c2cnc(N)nc2)c(N2CCCCCC2)nc1N` [compound 73, 73], the inhibition at 30 µM was 6%.

As for `CNc1ncc(-c2nc(C(=O)NC(=N)N)c(N)nc2N2CCCCCC2)cn1` [compound 74, 74], the inhibition at 30 µM came out at 27%.

For the compound `CC(C)Nc1ncc(-c2nc(C(=O)NC(=N)N)c(N)nc2N2CCCCCC2)cn1` [compound 75, 75], the inhibition at 30 µM was determined as 11%.

Consider `N=C(N)NC(=O)c1nc(-c2cnc(NCCO)nc2)c(N2CCCCCC2)nc1N` [compound 76, 76], for which the inhibition at 30 µM was found to be 6%.

For a further assay the target is unchanged. The assay can be described thus: cell-based. The following applies: tsA201, read-out: % inhibition @ 30 µM. The source holds these as a separate data set.
For `N=C(N)NC(=O)c1nc(Cl)c(NCc2ccccc2)nc1N` [compound 87], the inhibition at 30 µM was 90%.

Regarding `N=C(N)NC(=O)c1nc(Cl)c(NCCc2ccccc2)nc1N` [compound 88], the inhibition at 30 µM amounted to 91%.

Take `N#CCCNc1nc(N)c(C(=O)NC(=N)N)nc1Cl` [compound 89]: the inhibition at 30 µM was determined as 80%.

On to `N=C(N)NC(=O)c1nc(Cl)c(NCCP(=O)(O)O)nc1N` [compound 90, 90], for which the inhibition at 30 µM turned out to be 81%.

On to `Cc1ccc(S(=O)(=O)NCCNc2nc(N)c(C(=O)NC(=N)N)nc2Cl)cc1` [compound 91], for which the inhibition at 30 µM amounted to 79%.

Consider `N=C(N)NC(=O)c1ccccc1` [compound 92, 92], for which the inhibition at 30 µM stood at 22%.

`N=C(N)NC(=O)c1ccccn1` [compound 93, 93]: the inhibition at 30 µM is 22%.

In the case of `CC(C)c1ccc(C(=O)NC(=N)N)cc1S(C)(=O)=O` [compound 95, 95], the inhibition at 30 µM came to 37%.

Regarding `N=C(NC(=O)c1nc(Cl)c(N)nc1N)Nc1ccccc1` [compound 96, 96], the inhibition at 30 µM stood at 94%.

For the compound `N=C(N)NC(=O)c1nc(I)c(N)nc1N` [compound 97], the inhibition at 30 µM was found to be 95%.

Another assay shares this target. The assay is described as follows: cell-based. The settings on record: tsA201, read-out: % inhibition @ 30 µM. This is another data set of the same source.
For `N=C(N)NC(=O)c1nc(-c2ccc(C(F)(F)F)cc2)c(N2CCCC2)nc1N` [compound 78, 78], the inhibition at 30 µM stood at 78%.

Take `N=C(N)NC(=O)c1nc(-c2ccc(C(F)(F)F)cc2)c(C2CC2)nc1N` [compound 79, 79]: the inhibition at 30 µM worked out at 65%.
